Data from patent US12312337B2, “Compounds and methods for treating cancer” (ANTIDOTE IP HOLDINGS, LLC, priority 2019, dated 2025).

molecular target: T1, human AhR (Homo sapiens, UniProt P35869); experiment: INDIGO AhR Reporter Assay (luciferase reporter cells, antagonist mode); assay type: cell-based; conditions: antagonist mode with 50 nM of VAF347 (AhR agonist); 22-24 hours incubation; luciferase RLU
T1 construct: INDIGO's Aryl Hydrocarbon Receptor (AhR) Reporter Cells include the luciferase reporter gene functionally linked to an AhR-responsive promoter
T1 sequence (P35869 11-848): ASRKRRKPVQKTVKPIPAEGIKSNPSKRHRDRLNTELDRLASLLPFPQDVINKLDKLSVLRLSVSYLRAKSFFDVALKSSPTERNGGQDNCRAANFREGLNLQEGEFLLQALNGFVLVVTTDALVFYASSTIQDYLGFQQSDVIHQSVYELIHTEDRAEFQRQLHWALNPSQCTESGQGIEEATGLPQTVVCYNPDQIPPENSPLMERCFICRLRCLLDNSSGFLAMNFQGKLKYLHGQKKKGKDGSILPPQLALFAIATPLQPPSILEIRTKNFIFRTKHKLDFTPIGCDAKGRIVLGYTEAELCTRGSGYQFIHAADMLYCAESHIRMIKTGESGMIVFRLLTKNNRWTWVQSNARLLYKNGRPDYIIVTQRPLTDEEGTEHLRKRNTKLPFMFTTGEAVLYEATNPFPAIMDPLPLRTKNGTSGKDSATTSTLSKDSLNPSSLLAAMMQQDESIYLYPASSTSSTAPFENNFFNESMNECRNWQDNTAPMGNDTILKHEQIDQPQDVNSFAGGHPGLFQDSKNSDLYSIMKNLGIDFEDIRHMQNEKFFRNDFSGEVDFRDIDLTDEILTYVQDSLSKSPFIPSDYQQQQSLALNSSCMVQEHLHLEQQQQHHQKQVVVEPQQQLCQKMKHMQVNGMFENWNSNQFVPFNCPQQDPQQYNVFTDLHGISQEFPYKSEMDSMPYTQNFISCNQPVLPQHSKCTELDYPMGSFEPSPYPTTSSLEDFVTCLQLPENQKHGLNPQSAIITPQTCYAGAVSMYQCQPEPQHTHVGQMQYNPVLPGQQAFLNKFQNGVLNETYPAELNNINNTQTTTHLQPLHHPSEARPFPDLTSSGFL
Description: INDIGO's Aryl Hydrocarbon Receptor (AhR) Reporter Cells include the luciferase reporter gene functionally linked to an AhR-responsive promoter. Thus, quantifying changes in luciferase expression in the treated reporter cells provides a sensitive surrogate measure of the changes in AhR activity. The principle application of this reporter assay is in the screening of test samples to quantify any functional activity, either agonist or antagonist, that they may exert against human AhR. Reporter Cells incorporate the cDNA encoding beetle luciferase, a 62 kD protein originating from the North American firefly (Photinus pyralis). Luciferase catalyzes the mono-oxidation of D-luciferin in a Mg^2+-dependent reaction that consumes 02 and ATP as co-substrates, and yields as products oxyluciferin, AMP, PPi, CO2, and photon emission. Luminescence intensity of the reaction is quantified using a luminometer, and is reported in terms of Relative Light Units (RLU's). In brief, 200 μl of Reporter Cells was dispensed into wells of the assay plate and pre-incubated for 4-6 hours. Following the pre-incubation period, culture media were discarded and 200 µl/well of the prepared 1×-concentration treatment media were added. Following 22-24 hours of incubation, treatment media were discarded and Luciferase Detection Reagent was added. The intensity of light emission (in units of “Relative Light Units” (RLU)) from each assay well was quantified using a plate-reading luminometer. The assay was run as a competitive binding assay in the antagonist mode with 50 nM of VAF347, a known AhR agonist.
In Table 4, IC50 values are reported as A, B, C, or D. A represents an IC50 value of less than 100 nM. B represents an IC50 value of equal or greater than 100 nM and less than 500 nM. C represents an IC50 value of equal or greater than 500 nM and less than 1 μM. D represents an IC50 value of equal or greater than 1 μM.

| SMILES | IC50 |
| --- | --- |
| Cn1nccc1NC(=O)c1ccc2c(Oc3ccccc3)ccnc2c1 [Compound 76, N-(1-Methyl-1H-pyrazol-5-yl)-4-phenoxyquinoline-7-carboxamide] | > 1000 nM |
| Cn1nc(C(F)(F)F)cc1NC(=O)c1ccc2cc(-c3ccccn3)cnc2c1 [Compound 100, N-(1-methyl-3-(trifluoromethyl)-1H-pyrazol-5-yl)-3-(pyridine-2-yl)quinoline-7-carboxamide] | < 100 nM |
| Cn1nc(C(F)(F)F)cc1NC(=O)c1ccc2cc(-c3ccsc3)cnc2c1 [Compound 67, N-[1-Methyl-3-(trifluoromethyl)-1H-pyrazol-5-yl]-3-(thiophen-3-yl)quinoline-7-carboxamide] | < 100 nM |
| Cn1nc(C(F)(F)F)cc1NC(=O)c1ccc2cc(-c3cccs3)cnc2c1 [Compound 73, N-[1-Methyl-3-(trifluoromethyl)-1H-pyrazol-5-yl]-3-(thiophen-2-yl)quinoline-7-carboxamide] | < 100 nM |
| CCN(CC)S(=O)(=O)c1cc(NC(=O)c2cc3ncccc3cc2Cl)ccc1F [Compound 33, 6-Chloro-N-(3-(N,N-diethylsulfamoyl)-4-fluorophenyl)quinoline-7-carboxamide] | 500 to 1000 nM |
| Cc1ccccc1/N=N/c1ccc(NC(=O)c2ccnn2C)c(C)c1 [CH223191, reference compound] | 100 to 500 nM |
| Cc1ccc(C(F)(F)F)cc1-c1cc(NC(=O)c2cc3ncccc3cc2Cl)n(C)n1 [Compound 59] | 100 to 500 nM |
| O=C(Nc1ccc(C(F)(F)F)nc1)c1ccc2c(N3CCOCC3)ccnc2c1 [Compound 80, 4-morpholino-N-(6-(trifluoromethyl)pyridin-3-yl)quinoline-7-carboxamide] | > 1000 nM |
| Cn1nc(-c2ccccc2)cc1NC(=O)c1ccc2cc(-c3ccncc3F)cnc2c1 [Compound 125, 3-(3-fluoropyridin-4-yl)-N-(1-methyl-3-phenyl-1H-pyrazol-5-yl) quinoline-7-carboxamide] | 100 to 500 nM |
| CN1CCN(S(=O)(=O)c2cc(NC(=O)c3ccc4c(c3)NC(=O)CO4)ccc2Cl)CC1 [Compound 172] | 500 to 1000 nM |
| Cc1ccc(-c2cnc3cc(C(=O)Nc4cc(C(F)(F)F)nn4C)ccc3c2)cc1 [Compound 62, N-[1-Methyl-3-(trifluoromethyl)-1H-pyrazol-5-yl]-3-(4-methylphenyl) quinoline-7-carboxamide] | 100 to 500 nM |
| CCN(CC)S(=O)(=O)c1cc(NC(=O)c2cc3cc(-c4ccc(F)cc4)cnc3s2)ccc1Cl [Compound 141, N-[4-chloro-3-(N,N-diethylsulfamoyl)phenyl]-5-(4-fluorophenyl)-thieno[2,3-b]pyridine-2-carboxamide] | 100 to 500 nM |
| Cn1nc(C(F)(F)F)cc1NC(=O)c1ccc2cc(-c3ccncc3F)cnc2c1 [Compound 98, 3-(3-fluoropyridin-4-yl)-N-[1-methyl-3-(trifluoromethyl)-1H-pyrazol-5-yl]quinoline-7-carboxamide] | 100 to 500 nM |
| CN(C)S(=O)(=O)c1cc(NC(=O)c2cc3cc(-c4ccc(F)cc4)cnc3s2)ccc1Cl [Compound 148, N-[4-chloro-3-(N,N-dimethylsulfamoyl)phenyl]-5-(4-fluorophenyl)-thieno[2,3-b]pyridine-2-carboxamide] | 100 to 500 nM |
| Cn1nc(-c2ccccc2C(F)(F)F)cc1NC(=O)c1cc2ncccc2cc1Cl [Compound 44, 6-Chloro-N-(1-methyl-3-(2-(trifluoromethyl)phenyl)-1H-pyrazol-5-yl)quinoline-7-carboxamide] | 100 to 500 nM |
| Cc1ccc(F)cc1-c1cc(NC(=O)c2cc3ncccc3cc2Cl)n(C)n1 [Compound 50, 6-Chloro-N-[3-(5-fluoro-2-methylphenyl)-1-methyl-1H-pyrazol-5-yl]quinoline-7-carboxamide] | < 100 nM |
| Cc1cc(Cl)ccc1-c1cc(NC(=O)c2cc3ncccc3cc2Cl)n(C)n1 [Compound 58, 6-Chloro-N-(3-(4-chloro-2-methylphenyl)-1-methyl-1H-pyrazol-5-yl)quinoline-7-carboxamide] | 100 to 500 nM |
| Cn1nc(C(C)(C)C)cc1NC(=O)c1ccc2cc(-c3ccc(F)cc3)cnc2c1 [Compound 74, 3-(4-Fluorophenyl)-N-[1-methyl-3-(tert-butyl)-1H-pyrazol-5-yl]quinoline-7-carboxamide] | 100 to 500 nM |

Next, values leading:

| IC50 | SMILES |
| --- | --- |
| 100 to 500 nM | CCN(CC)S(=O)(=O)c1cc(NC(=O)c2cc3cc(-c4ccncc4)cnc3s2)ccc1Cl [Compound 142, N-[4-chloro-3-(N,N-diethylsulfamoyl)phenyl]-5-(pyridin-4-yl)-thieno[2,3-b]pyridine-2-carboxamide] |
| < 100 nM | Cn1nc(C(F)(F)F)cc1NC(=O)c1ccc2cc(-c3nccs3)cnc2c1 [Compound 93, N-(1-methyl-3-(trifluoromethyl)-1H-pyrazol-5-yl)-3-(thiazol-2-yl)quinoline-7-carboxamide] |
| > 1000 nM | Cn1nc(C(F)(F)F)cc1NC(=O)c1ccc2cc(-c3cccnc3)cnc2c1 [Compound 77, N-[1-methyl-3-(trifluoromethyl)-1H-pyrazol-5-yl]-3-(pyridin-3-yl)quinoline-7-carboxamide] |
| 100 to 500 nM | Cc1ccccc1-c1cnc2cc(C(=O)Nc3ccc(C(F)(F)F)nc3)ccc2c1 [Compound 81, 3-(o-tolyl)-N-(6-(trifluoromethyl)pyridin-3-yl)quinoline-7-carboxamide] |
| 500 to 1000 nM | CCN(CC)S(=O)(=O)c1cc(NC(=O)c2cc3cc(-c4ccccn4)cnc3s2)ccc1Cl [Compound 144, N-[4-chloro-3-(N,N-diethylsulfamoyl)phenyl]-5-(pyridin-2-yl)-thieno[2,3-b]pyridine-2-carboxamide] |
| < 100 nM | Cn1nc(C(F)(F)F)cc1NC(=O)c1ccc2cc(-c3ccc(F)cc3F)cnc2c1 [Compound 75, 3-(2,4-Difluorophenyl)-N-[1-methyl-3-(trifluoromethyl)-1H-pyrazol-5-yl]quinoline-7-carboxamide] |
| > 1000 nM | CCN(CC)S(=O)(=O)c1cc(NC(=O)c2cc3cc(-c4ccc(F)cn4)cnc3s2)ccc1Cl [Compound 151, N-[4-chloro-3-(N,N-diethylsulfamoyl)phenyl]-5-(5-fluoropyridin-2-yl)-thieno[2,3-b]pyridine-2-carboxamide] |
| < 100 nM | Cn1nc(C(F)(F)F)cc1NC(=O)c1cc2ncccc2cc1Cl [Compound 27, 6-Chloro-N-[1-methyl-3-(trifluoromethyl)-1H-pyrazol-5-yl]quinoline-7-carboxamide] |
| > 1000 nM | Cn1nc(C(F)(F)F)cc1NC(=O)c1ccc2cc(-c3cccc(F)c3)cnc2c1 [Compound 60, 3-(3-Fluorophenyl)-N-[1-methyl-3-(trifluoromethyl)-1H-pyrazol-5-yl]quinoline-7-carboxamide] |
| 500 to 1000 nM | Cn1nc(C(F)(F)F)cc1NC(=O)c1ccc2cc(-c3ccccc3C(F)(F)F)cnc2c1 [Compound 53, N-[1-methyl-3-(trifluoromethyl)-1H-pyrazol-5-yl]-3-[2-(trifluoromethyl)phenyl]quinoline-7-carboxamide] |
| 500 to 1000 nM | O=C(Nc1ccc(C(F)(F)F)nc1)c1ccc2cc(-c3nccs3)cnc2c1 [Compound 83, 3-(thiazol-2-yl)-N-(6-(trifluoromethyl)pyridin-3-yl)quinoline-7-carboxamide] |
| > 1000 nM | CC(C)Oc1ccnc2cc(C(=O)Nc3cc(C(F)(F)F)nn3C)ccc12 [Compound 99, 4-Isopropoxy-N-[1-methyl-3-(trifluoromethyl)-1H-pyrazol-5-yl]quinoline-7-carboxamide] |
